Data from US20070258893A1, “Compositions and methods for imaging expression of cell surface receptors” (priority 2003, published 2007).
“Also recorded” adds a separate entry of the source. Positions of bridges follow the written chain, without caps; N, C: chain ends. Non-standard residues stand in square brackets, D forms with d. Residues, ends and D or L forms follow the SMILES beside them. No end group written: not given here. 2Nal = N[C@@H](Cc1ccc2ccccc2c1)C(=O)O; Cit = NC(=O)NCCC[C@H](N)C(=O)O

Legend:
[1] = test system: CXCR4/SDF-1 mediated invasion of MDA-MB-231; experiment: Matrigel invasion assay with SDF-1 as chemoattractant; assay type: cell-based; details: 100 nM
Protocol: Invasive cells penetrate matrigel and end up on the other side of the matrigel.
(§1) A salt form of 6-18-10, WZ811S, was tested in a matrigel invasion assay to measure its ability to inhibit CXCR4/SDF-mediated invasion. […] Thus, Perkin-Elmer's LANCE cAMP assay kit (Cat # AD0262) that was based on time-resolved fluorescence resonance energy transfer (TR-FRET) was tested. […] The results were measured in Perkin-Elmer's Envision multi-label microplate reader (384-wells) with conditions of flash energy area=low, flash energy level=239, counting cycle=1 ms, and ex/em=340 nm/665 nm.

[2] = test system: HUVECs; experiment: SDF-1 induced endothelial tubular formation; assay type: cell-based; details: SDF-1 for 18 hours, pretreatment, P<0.001
[3] = in vivo; cited from earlier work
[4] = target: T1, CXCR4 (Homo sapiens, UniProt P61073); details: cited from earlier work
T1 sequence (P61073 whole entry): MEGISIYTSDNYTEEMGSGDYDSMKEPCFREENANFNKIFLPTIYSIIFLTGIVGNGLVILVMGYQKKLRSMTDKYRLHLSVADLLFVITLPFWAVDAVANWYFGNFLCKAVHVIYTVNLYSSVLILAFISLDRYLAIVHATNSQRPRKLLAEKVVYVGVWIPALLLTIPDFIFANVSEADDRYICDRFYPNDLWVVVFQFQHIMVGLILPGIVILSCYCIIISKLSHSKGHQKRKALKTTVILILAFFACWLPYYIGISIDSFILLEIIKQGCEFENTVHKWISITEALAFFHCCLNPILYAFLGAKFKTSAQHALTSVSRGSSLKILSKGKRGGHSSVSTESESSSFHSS

[5] = target: T1, CXCR4; experiment: Competitive binding assay against biotin-labeled TN14003 on MDA-MB-231 cells (immunofluorescence); design: endogenous in cells; host or cells: MDA-MB-231; details: cells pre-incubated with compound
Protocol: FIG. 4A illustrates the structure of TN14003-Biotin. […] 20,000 cells of MDA-MB-231 were seeded in 8-well slide chamber two days before experiments. Various concentration of the selected compounds (10,100, and 1000 nM) were added to the separate wells, incubated for 10 minutes at room temperature, and the cells were fixed in 4% of ice-cold paraformaldelyde. The slides were subsequently incubated with 50 ng/ml of biotin-TN14003 and streptavidin-Rhomdamine, followed by sytox blue. CXCR4—Red, nuclei-blue (sytox blue)
Screening of Small Molecule CXCR4 Antagonists With a Competitive Binding Assay Against Biotin-Labeled TN14003: T140 analogs, including TN14003, bind to the ligand binding site on CXCR4, blocking the CXCR4/SDF-1 interaction, and intervening in the progression of cancer metastasis. The discovery and development of effective, orally available small molecules also remains a major focus for many medicinal chemistry programs. […] Currently, the metal-chelating cyclams and bicyclams represent the sole class of non-peptide molecules that are known to block CXCR4. […] Trent, et al. Lipid Bilayer Simulations of XCXR4 with Inverse Agonists and Weal Partial Agonists. J. Biol. Chem. 2003 Nov. 21; 278(47):47136-44. […] This information was used to create a library of compounds with multiple, basic nitrogens throughout the molecular framework that are structurally different from AMD3100. […]

[6] = test system: CXCR4-mediated cancer metastasis; experiment: CXCR4-mediated cancer metastasis in vivo; details: TN14003 three times weekly injection; WZ811S more frequent injection schedule
[7] = test system: metastatic 686LN cells; experiment: Experimental head and neck cancer metastasis model (tail vein injection), FDG-PET imaging; assay type: in vivo; details: metastatic 686LN cells intravenously, nude mice
[8] = test system: metastatic 686LN cells; experiment: Orthotopic SCCHN xenograft model (BLI, CD31 immunostaining, H&E of lungs); assay type: in vivo, nude mice
Excerpt: FIG. 2 illustrates that CXCR4 antagonists block tumor malignancy in head and neck cancer. […] Subclones of squamous cell carcinoma of the head and neck (SCCHN) cell line 686LN were generated by passing these cells through several serial metastases in the SCCHN orthotopic animal model. The sub-populations of 686LN cells included one group with elevated metastatic activity and another group with non-metastatic parental cells. […] FIG. 2C is a scanned image of bioluminescence imaging of orthotopic xenografts of head and neck cancer treated with TN 14003. Metastatic 686LN cells (5×10^5) were injected into the neck area of nude mice, and they were divided into two groups, one with TN14003 treatment and the other with control peptide injection. 1 mg/kg of TN14003 was injected three times weekly i.p. TN14003 treatment started after tumors were established (day 8). Primary tumors were immunostained by using anti-CD31 antibody, and the microvessel density was calculated by averaging CD31-positive microvessels of primary tumors from each group (n=4) as illustrated in the bar graph of FIG. 2D. FIG. 2E is a scanned image of representative H & E stainings (original magnification, ×10) from two mice from each group.
The anti-tumor efficacy of the CXCR4 antagonist as also tested in an orthotopic SCCHN animal model. The metastatic cells were stably transfected with the luciferase gene (pGL2-control from Promega) for in vivo tracking purposes. These cells (500,000 cells) were injected into the submandibular subcutaneous tissue to the mylohyoid muscle of the nude mice to create an orthotopic SCCHN xenograft, and the tumor growth was followed using non-invasive Bioluminescence Imaging (BLI). […] The intraperitoneal treatment of TN14003 started 7 days after the tumor injection and lasted for 23 days compared to that of the control peptide. […]

[9] = Excerpt: Additionally, a synthetic 14-mer peptide blocked the CXCR4 receptor binding to its ligand SDF-1 and inhibited CXCR4/SDF-1 mediated invasion in vitro and metastasis in vivo with a higher specificity than anti-CXCR4 antibodies (R & D Systems). The anti-invasion and anti-metastasis activity of this peptide correlated well with their inhibitory activity on SDF-1α binding to CXCR4. This antagonist is proven safe by proliferation assay, animal histology, and hemopoietic progenitor cell colony formation.
[10] = test system: CXCR4/SDF-1 mediated invasion of MDA-MB-231; details: Liang et al.; cited from earlier work
[11] = test system: HIV; details: cited from earlier work; for SI=CC50/EC50: MT4 cells; for EC50: read-out: concentration required for 50% protection of HIV-induced cytopathogenicity in MT4 cells (EC50)
[12] = test system: MT4 cells; details: cited from earlier work
[13] = test system: CXCR4/SDF-1; experiment: LANCE cAMP assay (TR-FRET), SDF-1-induced cAMP reduction; assay type: cell-based; details: SDF-1 0-100 ng/ml
Protocol: as §1

[14] = target: T2, CXCR4 receptor on tumor cells (Homo sapiens, UniProt P61073); experiment: Immunofluorescence competition with biotin-labeled CXCR4 antagonist and streptavidin-conjugated rhodamine; assay type: binding; details: labeled via HYNIC and [19F]-FBA
T2 construct: endogenous in cells; probably MDA-MB-231 as in the drug screen
T2 sequence (P61073 whole entry): as above
Excerpt: FIG. 11A illustrates sub-fractions of a mixture of TN14003-HYNIC and FBA. After the conjugation steps, the mixture was fractionated with increasing acetonitrile concentration in a mobile phase. Mass spectroscopy data confirmed that fraction 6 contained TN14003-HYNIC, while the fraction […] contained 19F-labeled TN14003 (final product). Fractions 6 and 9 are indicated by arrows on the graph.
Using biotin-labeled CXCR4 antagonist along with streptavidin-conjugated rhodamine, the binding efficiency of the fluorine 19-labeled CXCR4 antagonist to CXCR4 receptor on tumor cells was determined and compared to that of the unlabeled CXCR4 antagonist in immunofluorescence as was done for drug screening, described above. Cells incubated with only streptavidin-conjugated rhodamine (negative control) were compared to cells incubated with both the biotin-labeled CXCR4 antagonist and streptavidin-conjugated rhodamine (positive control). When equal amounts of unlabeled CXCR4 antagonist were added into the biotin-labeled antagonist mixture, the red fluorescence decreased due to the competition between biotin-labeled antagonist and unlabeled antagonist. The same amount of red fluorescence decrease was seen when fluorine 19-labeled antagonist was added to the biotin-labeled antagonist mixture (FIG. 11B). […]

Compound: c1cc(CN2CCCNCCNCCCNCC2)ccc1CN1CCCNCCNCCCNCC1 [AMD3100]
- blocking SDF-1-induced invasion [1]: not as effective as WZ811S
- SDF-1 induced tubular network formation [2]: could not
- clinical safety outcome [3]: withdrawn due to cardiotoxicity
- functional character at CXCR4 [4]: weak partial agonist
- concentration needed to compete against biotin-labeled TN14003 [5]: 10 µM

Compound: N=C(N)NCCC[C@H](NC(=O)[C@@H]1CSSC[C@H](NC(=O)[C@H](Cc2ccc3ccccc3c2)NC(=O)[C@H](CCCNC(=N)N)NC(=O)[C@@H](N)CCCNC(=N)N)C(=O)N[C@@H](Cc2ccc(O)cc2)C(=O)N[C@@H](CCCNC(N)=O)C(=O)N[C@@H](CCCCN)C(=O)N[C@H](CCCCN)C(=O)N2CCC[C@H]2C(=O)N[C@@H](Cc2ccc(O)cc2)C(=O)N[C@@H](CCCNC(=N)N)C(=O)N[C@@H](CCCNC(N)=O)C(=O)N1)C(N)=O [TN14003, H-Arg-Arg—NaI—Cys-Tyr—Cit-Lys—DLys—Pro-Tyr-Arg—Cit—Cys-Arg—NH2] (H-RR[2Nal]CY[Cit]K[dK]PYR[Cit]CR-NH2; disulfide 4-13)
- SDF-1 induced tubular network formation [2]: inhibited tubular network formation
- blocking of CXCR4-mediated metastasis in vivo [6]: completely inhibited CXCR4-mediated cancer metastasis in vivo
- lung metastasis (FDG-PET, confirmed by histology) [7]: prevented lung metastasis of SCCHN; also recorded: inhibited lung metastasis
- primary tumor growth (bioluminescence imaging) ([8]; 1 mg/kg, i.p., pre-established tumors): suppressed even the primary tumor
- tumor angiogenesis / microvessel density (CD31 immunostaining) ([8]; 1 mg/kg, i.p., primary tumors): significantly blocked tumor angiogenesis at the primary site
- lung metastases (H&E) ([8]; orthotopic model, treated vs control group): reduction in the metastases
- safety [9]: proven safe
- blocking SDF-1-mediated invasion versus anti-CXCR4 antibody [10]: more effectively than an anti-CXCR4 antibody
- SI=CC50/EC50 [11]: 680,000
- EC50 [11]: 0.0006 µM
- CC50 [12]: 410 µM
- cytotoxicity compared to T140 [12]: far less cytotoxic

Compound: H-Arg-Arg—NaI—Cys-Tyr-Arg-Lys—DLys—Pro-Tyr-Arg—Cit—Cys-Arg—OH (H-RR[2Nal]CYRK[dK]PYR[Cit]CR-OH; ends and bridges not checked) [T140, reference compound]
- SI=CC50/EC50 [11]: 17,879
- EC50 [11]: 0.0033 µM
- CC50 [12]: 59 µM

Compound: SDF-1: stromal cell-derived factor 1, ligand of CXCR4
- EC80 of absorption increase at 665 nM [13]: 0.03 µg/mL

Compound: ^19F-labeled TN14003: TN14003-HYNIC conjugated with non-radioactive [19F]-fluorobenzaldehyde (RR[2Nal]CY[Cit]K[dK]PYR[Cit]CR-NH2; disulfide 4-13; also: HYNIC linker conjugated as hydrazone with [19F]-fluorobenzaldehyde, attachment site not given here)
- blocking of binding of biotin-labeled TN14003 to CXCR4 on cell surface by preincubation [14]: completely blocked
- binding efficiency to CXCR4 relative to unlabeled antagonist (red fluorescence decrease) ([14]; equal amounts): the same as that of unlabeled (original) antagonist
